Test results from paper PMC9987750, “Potent carbonic anhydrase I, II, IX and XII inhibition activity of novel primary benzenesulfonamides incorporating bis-ureido moieties” (Journal of Enzyme Inhibition and Medicinal Chemistry, 2023).

What was measured:
hCA I = molecular target: T1, hCA I (Homo sapiens, UniProt P00915); experiment: stopped flow CO2 hydrase assay, CA inhibition; format: biochemical; conditions: recombinant enzyme, pH 7.4, 10 min pre-incubation, from 3 different assays
T1 construct: made in house
Description: (§1) An SX.18 MV-R Applied Photophysics (Oxford, UK) stopped-flow instrument has been used to assay the catalytic/inhibition of various CA isozymes. […] Stock solutions of inhibitors were prepared at a concentration of 10 mM (in DMSO-water 1:1, v/v) and dilutions up to 0.01 nM done with the assay buffer mentioned above. […] Inhibitor and enzyme solutions were pre-incubated together for 10 min at room temperature prior to assay, in order to allow for the formation of the E-I complex. […] The inhibition constants were obtained by nonlinear least-squares methods using the Cheng-Prusoff equation, as reported earlier, and represent the mean from at least three different determinations.

hCA II = molecular target: T2, hCA II (Homo sapiens, UniProt P00918); experiment: stopped flow CO2 hydrase assay, CA inhibition; format: biochemical; conditions: recombinant enzyme, pH 7.4, 10 min pre-incubation, from 3 different assays
T2 construct: made in house
Description: as §1

hCA IX = molecular target: T3, hCA IX (Homo sapiens, UniProt Q16790); experiment: stopped flow CO2 hydrase assay, CA inhibition; format: biochemical; conditions: recombinant enzyme, pH 7.4, 10 min pre-incubation, from 3 different assays
T3 construct: made in house
Description: as §1

hCA XII = molecular target: T4, hCA XII (Homo sapiens, UniProt O43570); experiment: stopped flow CO2 hydrase assay, CA inhibition; format: biochemical; conditions: recombinant enzyme, pH 7.4, 10 min pre-incubation, from 3 different assays
T4 construct: made in house
Description: as §1

T4 sequence (O43570 25-354): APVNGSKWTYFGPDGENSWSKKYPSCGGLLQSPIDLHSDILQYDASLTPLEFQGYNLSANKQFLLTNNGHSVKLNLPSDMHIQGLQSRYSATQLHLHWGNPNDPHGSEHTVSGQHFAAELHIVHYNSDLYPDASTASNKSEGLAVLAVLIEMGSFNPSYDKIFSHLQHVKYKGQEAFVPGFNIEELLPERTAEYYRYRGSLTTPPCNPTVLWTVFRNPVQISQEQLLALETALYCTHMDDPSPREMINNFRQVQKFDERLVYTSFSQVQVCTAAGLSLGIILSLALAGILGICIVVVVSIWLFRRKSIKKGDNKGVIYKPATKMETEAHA
T1 sequence (P00915 whole entry): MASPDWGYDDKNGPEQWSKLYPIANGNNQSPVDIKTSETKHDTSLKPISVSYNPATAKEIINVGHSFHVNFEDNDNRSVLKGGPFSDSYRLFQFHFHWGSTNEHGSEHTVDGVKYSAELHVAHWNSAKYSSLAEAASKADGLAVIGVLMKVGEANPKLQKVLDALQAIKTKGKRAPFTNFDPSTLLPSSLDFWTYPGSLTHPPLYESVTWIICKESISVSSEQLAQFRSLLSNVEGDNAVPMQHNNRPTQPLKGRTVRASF

Compound | Ki (hCA I) [nM] | Ki (hCA II) [nM] | Ki (hCA IX) [nM] | Ki (hCA XII) [nM] | melting point [°C]
Cc1cc(-c2ccc(NC(=O)Nc3cccc(S(N)(=O)=O)c3)c(C)c2)ccc1NC(=O)Nc1cccc(S(N)(=O)=O)c1 [Compound 14, 3,3'-((((3,3'-Dimethyl-[1,1'-biphenyl]-4,4'-diyl)bis(azanediyl))bis(carbonyl))bis(azanediyl))dibenzenesulfonamide] | 688 | 637 | 578 | 67.9 | > 300
NS(=O)(=O)c1ccc(NC(=O)Nc2ccc(Cc3ccc(NC(=O)Nc4ccc(S(N)(=O)=O)cc4)cc3)cc2)cc1 [Compound 9, 4,4'-((((Methylenebis(4,1-phenylene))bis(azanediyl))bis(carbonyl))bis(azanediyl))dibenzenesulfonamide] | 6280 | 484 | 835 | 429 | 293 to 294
Cc1ccc(NC(=O)Nc2ccc(S(N)(=O)=O)cc2)cc1NC(=O)Nc1ccc(S(N)(=O)=O)cc1 [Compound 11, 4,4'-((((4-Methyl-1,3-phenylene)bis(azanediyl))bis(carbonyl))bis(azanediyl))dibenzenesulfonamide] | 68.1 | 4.4 | 6.73 | 7.39 | 279 to 281
Cc1ccc(NC(=O)Nc2cccc(S(N)(=O)=O)c2)cc1NC(=O)Nc1cccc(S(N)(=O)=O)c1 [Compound 15, 3,3'-((((4-Methyl-1,3-phenylene)bis(azanediyl))bis(carbonyl))bis(azanediyl))dibenzenesulfonamide] | 5000 | 80.8 | 81.1 | 67.1 | 233 to 234
Cc1cc(-c2ccc(NC(=O)Nc3ccc(S(N)(=O)=O)cc3)c(C)c2)ccc1NC(=O)Nc1ccc(S(N)(=O)=O)cc1 [Compound 10, 4,4'-((((3,3'-Dimethyl-[1,1'-biphenyl]-4,4'-diyl)bis(azanediyl))bis(carbonyl))bis(azanediyl))dibenzenesulfonamide] | 947 | 302 | 86.4 | 52.3 | > 300
NS(=O)(=O)c1ccc(CCNC(=O)Nc2ccc(Cc3ccc(NC(=O)NCCc4ccc(S(N)(=O)=O)cc4)cc3)cc2)cc1 [Compound 17, 4,4'-(((((Methylenebis(4,1-phenylene))bis(azanediyl))bis(carbonyl))bis(azanediyl))bis(ethane-2,1-diyl))dibenzenesulfonamide] | 5350 | 792 | 91.9 | 33.6 | 270 to 272
Cc1ccc(NC(=O)NCCc2ccc(S(N)(=O)=O)cc2)cc1NC(=O)NCCc1ccc(S(N)(=O)=O)cc1 [Compound 19, 4,4'-(((((4-Methyl-1,3-phenylene)bis(azanediyl))bis(carbonyl))bis(azanediyl))bis(ethane-2,1-diyl))dibenzenesulfonamide] | 95.4 | 25.8 | 8.92 | 5.02 | 245 to 247
NS(=O)(=O)c1cccc(NC(=O)Nc2ccc(Cc3ccc(NC(=O)Nc4cccc(S(N)(=O)=O)c4)cc3)cc2)c1 [Compound 13, 3,3'-((((Methylenebis(4,1-phenylene))bis(azanediyl))bis(carbonyl))bis(azanediyl))dibenzenesulfonamide] | 9170 | 306 | 78.7 | 27.7 | 293 to 295
NS(=O)(=O)c1cccc(NC(=O)Nc2ccc(NC(=O)Nc3cccc(S(N)(=O)=O)c3)cc2)c1 [Compound 12, 3,3'-(((1,4-Phenylenebis(azanediyl))bis(carbonyl))bis(azanediyl))dibenzenesulfonamide] | 6520 | 550 | 63.8 | 63.2 | > 300
Cc1cc(-c2ccc(NC(=O)NCCc3ccc(S(N)(=O)=O)cc3)c(C)c2)ccc1NC(=O)NCCc1ccc(S(N)(=O)=O)cc1 [Compound 18, 4,4'-(((((3,3'-Dimethyl-[1,1'-biphenyl]-4,4'-diyl)bis(azanediyl))bis(carbonyl))bis(azanediyl))bis(ethane-2,1-diyl))dibenzenesulfonamide] | 8310 | 604 | 93.7 | 60.3 | > 300
NS(=O)(=O)c1ccc(NC(=O)Nc2ccc(NC(=O)Nc3ccc(S(N)(=O)=O)cc3)cc2)cc1 [Compound 8, 4,4'-(((1,4-Phenylenebis(azanediyl))bis(carbonyl))bis(azanediyl))dibenzenesulfonamide] | 7280 | 680 | 57.5 | 37.3 | > 300
NS(=O)(=O)c1ccc(CCNC(=O)Nc2ccc(NC(=O)NCCc3ccc(S(N)(=O)=O)cc3)cc2)cc1 [Compound 16, 4,4'-((((1,4-Phenylenebis(azanediyl))bis(carbonyl))bis(azanediyl))bis(ethane-2,1-diyl))dibenzenesulfonamide] | 2910 | 424 | 68.7 | 82.8 | > 300
